In patent US7217730B2, “Method for the use of pyranoindole derivatives to treat infection with Hepatitis C virus” (Wyeth, priority 2002, dated 2007):
pIC50: −log10 of the molar value.

Target: T1, NS5B from the BK strain (genotype 1b) (Hepatitis C virus genotype 1b, UniProt P26663)
T1 construct: NS5B from the BK strain (genotype 1b) is expressed in E. coli as a protein in which the 21 C-terminal amino acids are replaced; made in house; host or cells: E. coli
Assay: Hepatitis C polymerase inhibition, NS5B BK strain, 33P-GTP filter assay
Format: biochemical
Details: Table 1A; for pIC50: NS5B BK strain, read-out: HCV pol BK IC50; for inhibition at 20 µM: 20 μM compound, read-out: HCV pol % inh at 20 μM
Text: The ability of the compounds of the present invention to inhibit Hepatitis C Polymerase was established by the following experimental procedure: • NS5B from the BK strain (genotype 1b) is expressed in E. coli as a protein in which the 21 C-terminal amino acids are replaced with a short linker and a hexahistidine tag ([…]). The purified protein is mixed with radioactive nucleotides and allowed to replicate a heteropolymeric RNA substrate, primed by an endogenous short hairpin, resulting in an approximately 760 nt product. The radioactive product is captured on a filter and quantitated after removal of the unincorporated nucleotides.
Reagents: • 10 mM uridine 5′-triphosphate (UTP) (Promega # p116B) • 10 mM adenine 5′-triphosphate (ATP) (Promega # p113B) • 10 mM cytidine 5′-triphosphate (CTP) (Promega # p114B) • 10 mM guanine 5′-triphosphate (GTP) (Promega # p115B) • Bovine Serum Albumin (BSA) 10 mg/ml NEB (100× at 10 mg/ml) #007-BSA • RNasein (Promega #N251X) 40 U/μl • A-[33P]-GTP (NEN-easytides NEG/606H 3000 Ci/mmol, 370 MBq/ml, 10 mCi/ml) • Falcon polypropylene 96 well plates (Becton Dickinson # 351190) • Millipore Multiscreen assasy system-96 well-filtration plate #MADE NOB 50 • Optiphase Supermix (Wallac) formulated by Fisher • Millipore Multiscreen liner for use in microbeta 1450-106 casette [(Wallac) Perkin Elmer #1450-433] • 1 M(N-[2-hydroxyethyl]piperazine-N′-[2-ethanesulfonic acid]) (HEPES), pH 7.3 • Amersham Pharmacia Biotec (US16924-500 ml) • 1 M MgCl2 (SIGMA #M1028) • Dithiothreitol (DTT) (solid) (SIGMA #D9779) • RNase free water (GIBCO-BRL #10977-023) • Dimethyl sulfoxide (Aldrich #27685-5) • Basilen Blue (Sigma, B5520) • 0.5M ethylenediaminetetraacetic acid (EDTA), pH 8 (GIBCO-BRL #15575-020) • Dibasic sodium phosphate (7-hydrate) (Na2HPO4.7H2O; Baker#3824-07) • Phosphoric acid (Baker, #0262.02)
Further reagent preparation: • 0.5 M Na Phosphate buffer. Per liter, weigh 134 gr Na2HPO4.7H2O, add water to 900 ml. Adjust pH to 7.0 with phosphoric acid. Top off with water to 1 L. • Dilute nucleotides 1:1000 to 10 μM (GTP and CTP) or 1:100 to 100 μM (ATP and UTP) into RNase free water.
Procedure: • (1) Compounds 10 μl at 10 μg/ml in 15% dimethylsulfoxide (DMSO)
When starting from 100 μg/ml compound stock in […]: • Dispense 5 μl 30% DMSO per well • Dispense 5 μl compound (100 μg/ml) per well.
When starting from 50 μg/ml compound stock in 15% DMSO: • Add 10 μl compound per well. • (2) Enzyme Mix:
Add 20 μl enzyme mix into each well of the assay plate. Incubate compound and enzyme at room temperature for 15 minutes • (3) Template mix—prepare ahead
Spin down a tube of RNA (5 μg/tube stored in 75% ethanol and 0.3 M sodium acetate) in a microcentrifuge for 20 minutes at 4° C. One tube is enough for 1–1.5 plates. Remove as much ethanol from the tube as possible by inverting the tube. Be gentle, pellet RNA may not adhere to the tube. Vacuum dry the RNA. Resuspend the RNA by adding 1 ml of DEPC water, close the cap of the tube tightly. To dissolve RNA, incubate RNA solution on ice for ˜60 minutes and gently vortex. Spin briefly to ensure all RNA solution is down to the bottom of the tube before opening cap. Gently transfer RNA solution into a 5 ml or larger tube. Add another 3 ml of DEPC water (total 4 ml of volume).
Add the following volumes of reagents
Add 20 μl template mix per reaction (i.e. 20 ng of pOF per reaction or ˜3 nM) • (4) Incubate reaction at room temperature (22–25° C.) for 2 hours. • (5) Stop reaction by adding 50 μl of 170 mM EDTA. • Final concentration of EDTA is 85 mM. • (6) Prewet filters of Millipore multiscreen assay plate by adding 200 μl of 0.5 M sodium phosphate buffer, pH 7.0 into each well. Let stand at room temperature for 2–3 minutes. • (7) Place the multiscreen filter plate onto a Millipore Manifold and turn on vacuum to allow buffer to flow through. Turn off vacuum. Transfer 80 μl of the reaction product into each well of the filter plate. Let stand for 2–3 minutes. […]

T1 sequence (P26663 2420-2989): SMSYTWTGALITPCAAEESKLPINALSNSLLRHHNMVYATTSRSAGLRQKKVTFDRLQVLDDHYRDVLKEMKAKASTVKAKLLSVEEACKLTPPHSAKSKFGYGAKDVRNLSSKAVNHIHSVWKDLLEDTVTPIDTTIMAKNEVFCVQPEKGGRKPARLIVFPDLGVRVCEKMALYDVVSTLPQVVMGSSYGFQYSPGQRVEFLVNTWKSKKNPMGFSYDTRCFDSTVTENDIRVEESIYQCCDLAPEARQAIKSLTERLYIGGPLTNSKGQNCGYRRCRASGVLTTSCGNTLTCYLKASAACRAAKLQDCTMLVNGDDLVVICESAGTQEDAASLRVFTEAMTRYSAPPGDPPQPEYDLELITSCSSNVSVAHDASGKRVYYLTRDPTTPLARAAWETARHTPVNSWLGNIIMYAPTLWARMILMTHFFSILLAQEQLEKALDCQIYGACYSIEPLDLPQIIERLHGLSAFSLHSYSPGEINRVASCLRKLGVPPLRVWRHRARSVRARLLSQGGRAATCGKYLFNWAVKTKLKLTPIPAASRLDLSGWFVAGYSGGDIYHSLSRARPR

Compound	pIC50	inhibition at 20 µM
CCCC1(CC(=O)O)OCCc2c1[nH]c1c(C)ccc(C#N)c21 (stereo not drawn) [Example 1, (5-cyano-8-methyl-1-propyl-1,3,4,9-tetrahydro-pyrano[3,4-b]indol-1-yl)acetic acid]	6.30	–
CCC[C@@]1(CC(=O)O)OCCc2c1[nH]c1c(C)ccc(C#N)c21 [Example 3, [(S)-5-cyano-8-methyl-1-propyl-1,3,4,9-tetrahydropyrano[3,4-b]indol-1-yl]acetic acid]	5.62	–
CCCC1(CC(=O)O)OCCc2c1[nH]c1c(F)ccc(C#N)c21 (stereo not drawn) [Example 4, (5-cyano-8-fluoro-1-propyl-1,3,4,9-tetrahydro-pyrano[3,4-b]indol-1-yl)acetic acid]	6.00	–
CCC[C@@]1(CC(=O)O)OCCc2c1[nH]c1c(F)ccc(C#N)c21 [Example 6, [(S)-5-cyano-8-fluoro-1-propyl-1,3,4,9-tetrahydropyrano[3,4-b]indol-1-yl]acetic acid]	5.24	–
CCCC1(CC(=O)O)OCCc2c1[nH]c1c(Cl)ccc(Cl)c21 (stereo not drawn) [Example 7, (5,8-dichloro-1-propyl-1,3,4,9-tetrahydro-pyrano[3,4-b]indol-1-yl)acetic acid]	6.70	–
CCC[C@@]1(CC(=O)O)OCCc2c1[nH]c1c(Cl)ccc(Cl)c21 [Example 9, [(S)-5,8-dichloro-1-propyl-1,3,4,9-tetrahydropyrano[3,4-b]indol-1-yl]acetic acid]	5.96	–
CCCC1(CC(=O)O)OCCc2c1[nH]c1c(C)cc(F)c(C#N)c21 (stereo not drawn) [Example 10, (5-cyano-6-fluoro-8-methyl-1-propyl-1,3,4,9-tetrahydropyrano[3,4-b]indol-1-yl)acetic acid]	7.10	–
CCC[C@@]1(CC(=O)O)OCCc2c1[nH]c1c(C)cc(F)c(C#N)c21 [Example 12, [(S)-5-cyano-6-fluoro-8-methyl-1-propyl-1,3,4,9-tetrahydropyrano[3,4-b]indol-1-yl]acetic acid]	6.22	–
CCC1(CC(=O)O)OCCc2c1[nH]c1cccc(Cl)c21 (stereo not drawn) [Example 13, (5-Chloro-1-ethyl-1,3,4,9-tetrahydropyrano[3,4-b]indol-1-yl)acetic acid]	< 4.70	23%
CCCC1(CC(=O)O)OCCc2c1[nH]c1cccc(Cl)c21 (stereo not drawn) [Example 14, (5-Chloro-1-propyl-1,3,4,9-tetrahydropyrano[3,4-b]indol-1-yl)acetic acid]	4.96	75%
CC(C)C1(CC(=O)O)OCCc2c1[nH]c1cccc(Cl)c21 (stereo not drawn) [Example 15, (5-chloro-1-isopropyl-1,3,4,9-tetrahydropyrano[3,4-b]indol-1-yl)acetic acid]	< 4.70	7%
C/C=C/CCC1(CC(=O)O)OCCc2c1[nH]c1cccc(Cl)c21 (stereo not drawn) [Example 16, {5-chloro-1-[(3E)-pent-3-enyl]-1,3,4,9-tetrahydropyrano[3,4-b]indol-1-yl}acetic acid]	< 4.70	< 5%
O=C(O)CC1(c2ccccc2)OCCc2c1[nH]c1cccc(Cl)c21 (stereo not drawn) [Example 17, (5-chloro-1-phenyl-1,3,4,9-tetrahydropyrano[3,4-b]indol-1-yl)acetic acid]	< 4.70	< 5%
O=C(O)CC1(c2ccc([N+](=O)[O-])cc2)OCCc2c1[nH]c1cccc(Cl)c21 (stereo not drawn) [Example 18, [5-chloro-1-(4-nitrophenyl)-1,3,4,9-tetrahydropyrano[3,4-b]indol-1-yl]acetic acid]	< 4.70	< 5%
O=C(O)CC1(c2cccc([N+](=O)[O-])c2)OCCc2c1[nH]c1cccc(Cl)c21 (stereo not drawn) [Example 19, [5-chloro-1-(3-nitrophenyl)-1,3,4,9-tetrahydropyrano[3,4-b]indol-1-yl]acetic acid]	< 4.70	6%
O=C(O)CC1(c2ccccc2F)OCCc2c1[nH]c1cccc(Cl)c21 (stereo not drawn) [Example 20, [5-chloro-1-(2-fluorophenyl)-1,3,4,9-tetrahydropyrano[3,4-b]indol-1-yl]acetic acid]	< 4.70	21%
CCC1(CC(=O)O)OCCc2c1[nH]c1cccc(Br)c21 (stereo not drawn) [Example 21, (5-bromo-1-ethyl-1,3,4,9-tetrahydro-pyrano[3,4-b]indol-1-yl)acetic acid]	< 4.70	58%
CCCC1(CC(=O)O)OCCc2c1[nH]c1cccc(Br)c21 (stereo not drawn) [Example 22, (5-bromo-1-propyl-1,3,4,9-tetrahydropyrano[3,4-b]indol-1-yl)acetic acid]	–	70%
CC(C)C1(CC(=O)O)OCCc2c1[nH]c1cccc(Br)c21 (stereo not drawn) [Example 23, (5-bromo-1-isopropyl-1,3,4,9-tetrahydropyrano[3,4-b]indol-1-yl)acetic acid]	< 4.70	12%
C/C=C/CCC1(CC(=O)O)OCCc2c1[nH]c1cccc(Br)c21 (stereo not drawn) [Example 24, {5-bromo-1-[(3E)-pent-3-enyl]-1,3,4,9-tetrahydropyrano[3,4-b]indol-1-yl}acetic acid]	< 4.70	< 5%
O=C(O)CC1(c2ccoc2)OCCc2c1[nH]c1cccc(Br)c21 (stereo not drawn) [Example 25, [5-bromo-1-(3-furyl)-1,3,4,9-tetrahydropyrano[3,4-b]indol-1-yl]acetic acid]	< 4.70	33%
O=C(O)CC1(c2ccccc2)OCCc2c1[nH]c1cccc(Br)c21 (stereo not drawn) [Example 26, (5-bromo-1-phenyl-1,3,4,9-tetrahydropyrano[3,4-b]indol-1-yl)acetic acid]	< 4.70	< 5%
COc1cc(C2(CC(=O)O)OCCc3c2[nH]c2cccc(Br)c32)cc(OC)c1OC (stereo not drawn) [Example 27, [5-bromo-1-(3,4,5-trimethoxyphenyl)-1,3,4,9-tetrahydropyrano[3,4-b]indol-1-yl]acetic acid]	< 4.70	3%
O=C(O)CC1(c2ccc([N+](=O)[O-])cc2)OCCc2c1[nH]c1cccc(Br)c21 (stereo not drawn) [Example 28, [5-bromo-1-(4-nitrophenyl)-1,3,4,9-tetrahydropyrano[3,4-b]indol-1-yl]acetic acid]	< 4.70	< 5%
O=C(O)CC1(c2cccc([N+](=O)[O-])c2)OCCc2c1[nH]c1cccc(Br)c21 (stereo not drawn) [Example 29, [5-bromo-1-(3-nitrophenyl)-1,3,4,9-tetrahydropyrano[3,4-b]indol-1-yl]acetic acid]	< 4.70	< 5%
O=C(O)CC1(c2ccccc2F)OCCc2c1[nH]c1cccc(Br)c21 (stereo not drawn) [Example 30, [5-bromo-1-(2-fluorophenyl)-1,3,4,9-tetrahydropyrano[3,4-b]indol-1-yl]acetic acid]	< 4.70	< 5%
CCCC1(CC(=O)O)OCCc2c1[nH]c1cccc(-c3ccccc3)c21 (stereo not drawn) [Example 31, (5-phenyl-1-propyl-1,3,4,9-tetrahydropyrano[3,4-b]indol-1-yl)acetic acid]	< 4.70	12%
